Like-named read-outs stand apart in the source and are kept apart here.

One data set deals with T1, ErbB2 kinase (Homo sapiens, UniProt P04626).
T1 construct: The final concentration of ErbB2 kinase was 0.06 ng/μL
Put plainly: EGFR/ErbB2 enzymatic experiment (HTRF kinEASE-TK), ErbB2. Particulars: ErbB2 kinase 0.06 ng/μL, ATP 4 μM; read-out: Kinase IC50 (nM) in vitro ErbB2. It counts as biochemical. For orientation: In TR-FRET formats the signal depends on donor and acceptor labels being close together.

For the next data set, the target named is T2, CYP2C19 (Homo sapiens, UniProt P33261).
T2 construct: A system of 100 μL human liver microsomes; from tissue; host or cells: human liver microsomes
The experiment in a line: Direct inhibition (DI) of CYP2C19 in human liver microsomes. It counts as in vitro ADME. The conditions noted are these: probe Mephenytoin, human liver microsomes 0.2 mg/mL, 10 μM compound, read-out: Direct inhibition (DI) 2C19 (Mephenytoin). In outline:
(§1)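 Pooled human liver microsomes (0.2 mg/mL) with 1 mM NADPH and 10 μM test compound were incubated for 20 min with a mixed probe-substrate cocktail (midazolam 10 μM, testosterone 100 μM, dextromethorphan 10 μM, diclofenac 20 μM, phenacetin 100 μM, mephenytoin 100 μM). Relative enzyme activity came from metabolite formation versus DMSO control.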
(In general: Microsomes from liver hold many membrane-bound enzymes, among them those of drug oxidation.)

Data set [1] deals with N87 (human gastric cancer cell NCI-N87). Put plainly: In vitro proliferation inhibition assay of cell lines (CellTiter-Glo), N87. It counts as cell-based. The conditions noted are these: N87 cells, 72 hours. In outline: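 Cells seeded overnight (BT-474 8.8×10^4 cells/mL, N87 6.6×10^4 cells/mL), then exposed to 9 compound concentrations in duplicate for 72 hours at 37° C, 5% CO2. Viability read by CellTiter-Glo luminescence.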
In general terms: Cellular ATP, detected with luciferase, serves as a proxy for viable cell number.

In a further data set the target is T3, CYP1A2 (Homo sapiens, UniProt P05177).
T3 construct: A system of 100 μL human liver microsomes; from tissue; host or cells: human liver microsomes
T3 sequence (P05177 1-516): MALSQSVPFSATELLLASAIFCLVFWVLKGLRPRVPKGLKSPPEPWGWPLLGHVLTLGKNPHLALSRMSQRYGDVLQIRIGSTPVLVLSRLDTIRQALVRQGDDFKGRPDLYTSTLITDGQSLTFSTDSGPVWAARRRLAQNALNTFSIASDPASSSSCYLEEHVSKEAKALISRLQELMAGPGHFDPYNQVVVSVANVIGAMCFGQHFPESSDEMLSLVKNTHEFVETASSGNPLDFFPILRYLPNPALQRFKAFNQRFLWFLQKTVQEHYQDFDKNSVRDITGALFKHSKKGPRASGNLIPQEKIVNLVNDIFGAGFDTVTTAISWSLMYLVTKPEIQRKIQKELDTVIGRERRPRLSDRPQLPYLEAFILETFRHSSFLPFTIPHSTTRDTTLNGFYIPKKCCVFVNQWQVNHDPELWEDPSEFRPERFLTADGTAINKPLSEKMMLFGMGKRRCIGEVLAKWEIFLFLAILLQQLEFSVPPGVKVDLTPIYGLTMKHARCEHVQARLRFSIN
Put plainly: Direct inhibition (DI) of CYP1A2 in human liver microsomes. Particulars: probe Phenacetin, human liver microsomes 0.2 mg/mL, 10 μM compound, read-out: Direct inhibition (DI) 1A2 (Phenacetin). In kind it is in vitro ADME. In outline:
as §1

For another data set, the target named is T4, CYP3A4 (Homo sapiens, UniProt P08684).
T4 construct: A system of 100 μL human liver microsomes; from tissue; host or cells: human liver microsomes
Put plainly: Direct inhibition (DI) of CYP3A4 in human liver microsomes. It counts as in vitro ADME. The conditions noted are these: human liver microsomes 0.2 mg/mL, 10 μM compound. In a few lines: as §1

Setting [2] is: probe Midazolam, read-out: Direct inhibition (DI) 3A4 (Midazolam).
Where [3] appears, read: probe Testosterone, read-out: Direct inhibition (DI) 3A4 (testosterone).

T4 sequence (P08684 whole entry): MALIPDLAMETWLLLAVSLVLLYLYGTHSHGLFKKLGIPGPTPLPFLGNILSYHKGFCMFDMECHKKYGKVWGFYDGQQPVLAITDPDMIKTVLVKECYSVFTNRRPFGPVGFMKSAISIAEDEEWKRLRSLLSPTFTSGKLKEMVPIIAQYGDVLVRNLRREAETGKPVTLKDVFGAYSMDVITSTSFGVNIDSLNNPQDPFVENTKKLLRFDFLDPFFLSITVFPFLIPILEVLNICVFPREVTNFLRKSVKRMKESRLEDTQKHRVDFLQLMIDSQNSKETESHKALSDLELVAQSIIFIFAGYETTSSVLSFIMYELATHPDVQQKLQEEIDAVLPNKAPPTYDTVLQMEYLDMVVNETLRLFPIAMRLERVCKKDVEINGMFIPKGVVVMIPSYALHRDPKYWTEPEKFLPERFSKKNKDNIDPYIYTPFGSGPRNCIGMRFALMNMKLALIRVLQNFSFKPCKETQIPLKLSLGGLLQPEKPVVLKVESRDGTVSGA
T2 sequence (P33261 whole entry): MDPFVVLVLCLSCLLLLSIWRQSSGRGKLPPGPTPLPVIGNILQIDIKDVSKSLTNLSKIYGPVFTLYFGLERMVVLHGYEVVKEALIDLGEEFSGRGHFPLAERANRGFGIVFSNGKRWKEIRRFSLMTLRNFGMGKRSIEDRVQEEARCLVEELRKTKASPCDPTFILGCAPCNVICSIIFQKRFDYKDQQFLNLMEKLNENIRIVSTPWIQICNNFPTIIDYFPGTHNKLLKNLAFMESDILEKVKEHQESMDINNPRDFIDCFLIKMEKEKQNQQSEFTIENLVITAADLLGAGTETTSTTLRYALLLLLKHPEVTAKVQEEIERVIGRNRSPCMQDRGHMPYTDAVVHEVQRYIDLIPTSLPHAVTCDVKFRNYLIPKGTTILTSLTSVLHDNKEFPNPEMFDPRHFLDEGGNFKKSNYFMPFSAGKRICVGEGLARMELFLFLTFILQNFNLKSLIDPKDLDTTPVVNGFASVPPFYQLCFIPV
T1 sequence (P04626 23-1255): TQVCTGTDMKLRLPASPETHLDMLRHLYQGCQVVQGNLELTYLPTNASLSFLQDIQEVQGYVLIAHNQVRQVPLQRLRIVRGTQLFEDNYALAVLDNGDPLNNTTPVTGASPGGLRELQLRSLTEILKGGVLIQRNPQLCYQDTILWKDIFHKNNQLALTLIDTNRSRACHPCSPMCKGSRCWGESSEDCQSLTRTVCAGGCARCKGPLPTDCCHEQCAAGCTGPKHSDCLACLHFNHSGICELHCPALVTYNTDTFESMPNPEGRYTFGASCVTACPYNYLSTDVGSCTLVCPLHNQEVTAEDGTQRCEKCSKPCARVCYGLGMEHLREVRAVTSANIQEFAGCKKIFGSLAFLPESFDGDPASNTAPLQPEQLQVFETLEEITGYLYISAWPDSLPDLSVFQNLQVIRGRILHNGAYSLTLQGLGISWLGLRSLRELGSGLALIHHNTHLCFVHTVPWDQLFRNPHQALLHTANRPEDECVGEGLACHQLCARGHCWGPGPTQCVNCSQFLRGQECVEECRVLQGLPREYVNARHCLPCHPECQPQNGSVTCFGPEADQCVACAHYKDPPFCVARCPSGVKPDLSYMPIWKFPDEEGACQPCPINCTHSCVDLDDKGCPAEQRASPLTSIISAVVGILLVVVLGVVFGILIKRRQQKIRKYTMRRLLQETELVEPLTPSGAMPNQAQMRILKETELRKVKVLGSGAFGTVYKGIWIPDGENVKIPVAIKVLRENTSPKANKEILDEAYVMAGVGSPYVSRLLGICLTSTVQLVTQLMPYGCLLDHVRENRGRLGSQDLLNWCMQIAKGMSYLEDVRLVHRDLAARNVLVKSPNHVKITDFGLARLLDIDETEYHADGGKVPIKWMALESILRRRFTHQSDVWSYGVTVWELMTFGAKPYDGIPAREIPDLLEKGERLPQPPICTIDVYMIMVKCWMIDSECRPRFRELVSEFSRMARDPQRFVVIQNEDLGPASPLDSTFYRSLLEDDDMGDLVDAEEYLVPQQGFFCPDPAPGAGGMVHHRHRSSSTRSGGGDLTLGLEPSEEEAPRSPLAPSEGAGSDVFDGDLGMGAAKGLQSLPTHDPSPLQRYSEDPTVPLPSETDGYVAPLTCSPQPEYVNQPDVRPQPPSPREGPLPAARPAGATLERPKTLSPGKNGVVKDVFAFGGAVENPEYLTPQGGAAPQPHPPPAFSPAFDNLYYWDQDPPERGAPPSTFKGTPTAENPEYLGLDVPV

For `CCOc1cc2ncnc(Nc3ccc(Oc4ccn5ncnc5c4)c(C)c3)c2cc1NC(=O)/C(F)=C/[C@H]1CCCN1C` [Final product of Embodiment 45], the IC50 is 1.8 nM on ErbB2 kinase and 1.3 nM in data set [1]. Besides, the inhibition at 20 min, 10 µM at CYP2C19 was determined as 11%; on CYP1A2, 8%; at CYP3A4 (setting [2]), 6%; on CYP3A4 (setting [3]), 24%.

For `CCOc1cc2ncnc(Nc3ccc(Oc4ccn5ncnc5c4)c(C)c3)c2cc1NC(=O)/C=C/[C@H]1CCCN1C` [Final product of Embodiment 22, (R,E)-N-(4-((4-([1,2,4]triazolo[1,5-a]pyridin-7-yloxy)-3-methylphenyl)amino)-7-ethoxyquinazolin-6-yl)-3-(1-methylpyrrolidin-2-yl)acrylamide], the IC50 on ErbB2 kinase turned out to be 0.37 nM; in data set [1] it was 0.68 nM. Moreover, the inhibition at 20 min, 10 µM turned out to be 37% at CYP2C19, 14% at CYP1A2, 12% at CYP3A4 (setting [2]) and 32% at CYP3A4 (setting [3]).

As usually defined, the IC50 is the point on the concentration scale where inhibition reaches its midpoint. What is called inhibition is the drop in the measured response relative to a control, in per cent.

The values above are taken from patent publication US11578074B2, “Nitrogenous heterocyclic compound, preparation method, intermediate, composition, and application” (SHANGHAI PHARMACEUTICALS HOLDING CO., LTD., priority 2017, dated 2023).
